Assay results from patent US10294202B2, “Pyrrolidinones as herbicides” (FMC Corporation, priority 2013, dated 2019).
Where two headings read alike, the source gives them in different places.

Assays:
ryegrass, Italian = assay: Test C pre-/postemergence herbicide test; assay type: in vivo, Lolium multiflorum
Outline: (§1)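 Greenhouse plants scored visually against untreated controls 13–15 days after treatment, 0 = no effect, 100 = complete control. Test chemicals in a non-phytotoxic solvent with surfactant were applied either to soil (loam/sand) at planting or to foliage of 1- to 4-leaf plants, 2–18 cm tall.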

johnsongrass = assay: Test C pre-/postemergence herbicide test; assay type: in vivo, Sorghum halepense
Outline: as §1

corn = assay: Test C pre-/postemergence herbicide test; assay type: in vivo, Zea mays
Outline: as §1

lambsquarters = assay: Test C pre-/postemergence herbicide test; assay type: in vivo, Chenopodium album
Outline: as §1

giant foxtail = assay: Test A pre-/postemergence herbicide test; assay type: in vivo, Setaria faberii; conditions: Setaria faberi, 240 h, 1000 g ai/ha, read-out: Plant response rating, Foxtail, Giant
Outline: (§2)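 Visual 0–100 ratings (100 = complete control) made about 10 days after treatment, greenhouse-held plants compared with untreated controls. Treatments: postemergence sprays on one- to two-leaf plants (2–10 cm tall) and preemergence directed soil sprays after planting in loam–sand, chemicals formulated in non-phytotoxic solvent containing surfactant.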

crabgrass, large = assay: Test C pre-/postemergence herbicide test; assay type: in vivo, Digitaria sanguinalis
Outline: as §1

pigweed = assay: Test C pre-/postemergence herbicide test; assay type: in vivo, Amaranthus retroflexus
Outline: as §1

soybean = assay: Test C pre-/postemergence herbicide test; assay type: in vivo, Glycine max
Outline: as §1

barnyardgrass = assay: Test A pre-/postemergence herbicide test; assay type: in vivo, Echinochloa crus-galli; conditions: Echinochloa crus-galli, 240 h, 1000 g ai/ha, read-out: Plant response rating, Barnyardgrass
Outline: as §2

nutsedge, yellow = assay: Test C pre-/postemergence herbicide test; assay type: in vivo, Cyperus esculentus
Outline: as §1

[1] = Postemergence, 31 g ai/ha, scale 0 (no effect) to 100 (complete control)
[2] = Postemergence, 62 g ai/ha, scale 0 to 100 (0 no effect, 100 complete control)
[3] = Postemergence, 125 g ai/ha, scale 0 to 100 (0 no effect, 100 complete control)
[4] = Postemergence, 250 g ai/ha, scale 0 to 100 (0 no effect, 100 complete control)
[5] = Preemergence, 62 g ai/ha, scale 0 to 100
[6] = Preemergence, 125 g ai/ha, scale 0 to 100 (0 no effect, 100 complete control)
[7] = Preemergence, 31 g ai/ha, scale 0 to 100 (0 no effect, 100 complete control)
[8] = Preemergence, 250 g ai/ha, scale 0 to 100 (0 no effect, 100 complete control)
[9] = post-emergence, Postemergence, 0 to 100 scale (0 no effect, 100 complete control)
[10] = pre-emergence, Preemergence, visual rating on 0 to 100 scale (0 no effect, 100 complete control), approx. 10 days

O=C1NCC(c2ccc(F)c(F)c2)C1C(=O)Nc1cccc(F)c1F (centres unmarked) [Compound 17, N-(2,3-difluorophenyl)-4-(3,4-difluorophenyl)-2-oxo-3-pyrrolidinecarboxamide]
Plant response rating, Ryegrass, Italian (ryegrass, Italian; [1]): 0
Plant response rating, Ryegrass, Italian (ryegrass, Italian; [2]): 0
Plant response rating, Ryegrass, Italian (ryegrass, Italian; [3]): 0
Plant response rating, Ryegrass, Italian (ryegrass, Italian; [4]): 5
Plant response rating, Ryegrass, Italian (ryegrass, Italian; [5]): 5
Plant response rating, Ryegrass, Italian (ryegrass, Italian; [6]): 35
Plant response rating, Johnsongrass (johnsongrass; [1]): 0
Plant response rating, Johnsongrass (johnsongrass; [2]): 0
Plant response rating, Johnsongrass (johnsongrass; [3]): 0
Plant response rating, Johnsongrass (johnsongrass; [4]): 0
Plant response rating, Johnsongrass (johnsongrass; [5]): 5
Plant response rating, Johnsongrass (johnsongrass; [6]): 65
Plant response rating, Corn (corn; [1]): 0
Plant response rating, Corn (corn; [2]): 0
Plant response rating, Corn (corn; [3]): 0
Plant response rating, Corn (corn; [4]): 0
Plant response rating, Corn (corn; [5]): 0
Plant response rating, Corn (corn; [6]): 30
Corn plant response rating (corn; [7]): 0
Plant response rating, Corn (corn; [8]): 70
Plant response rating, Lambsquarters (lambsquarters; [1]): 0
Plant response rating, Lambsquarters (lambsquarters; [2]): 0
Plant response rating, Lambsquarters (lambsquarters; [3]): 0
Plant response rating, Lambsquarters (lambsquarters; [4]): 0
Plant response rating, Lambsquarters (lambsquarters; [5]): 60
Plant response rating, Lambsquarters (lambsquarters; [6]): 60
pest or weed control at 1000 g/ha (giant foxtail; [9]): 90%
pest or weed control at 1000 g/ha (giant foxtail; [10]): 90%
Plant response rating, Crabgrass, Large (crabgrass, large; [1]): 0
Plant response rating, Crabgrass, Large (crabgrass, large; [2]): 0
Plant response rating, Crabgrass, Large (crabgrass, large; [3]): 45
Plant response rating, Crabgrass, Large (crabgrass, large; [4]): 70
Plant response rating, Crabgrass, Large (crabgrass, large; [5]): 98
Plant response rating, Crabgrass, Large (crabgrass, large; [6]): 100
Crabgrass, Large plant response rating (crabgrass, large; [7]): 95
Plant response rating, Crabgrass, Large (crabgrass, large; [8]): 100
Plant response rating, Pigweed (pigweed; [1]): 0
Plant response rating, Pigweed (pigweed; [2]): 0
Plant response rating, Pigweed (pigweed; [3]): 0
Plant response rating, Pigweed (pigweed; [4]): 0
Plant response rating, Pigweed (pigweed; [5]): 0
Plant response rating, Pigweed (pigweed; [6]): 50
Plant response rating, Soybean (soybean; [1]): 0
Plant response rating, Soybean (soybean; [2]): 0
Plant response rating, Soybean (soybean; [3]): 0
Plant response rating, Soybean (soybean; [4]): 0
Plant response rating, Soybean (soybean; [5]): 0
Plant response rating, Soybean (soybean; [6]): 0
pest or weed control at 1000 g/ha (barnyardgrass; [9]): 90%
pest or weed control at 1000 g/ha (barnyardgrass; [10]): 90%
Plant response rating, Nutsedge, Yellow (nutsedge, yellow; [1]): 0
Plant response rating, Nutsedge, Yellow (nutsedge, yellow; [2]): 0
Plant response rating, Nutsedge, Yellow (nutsedge, yellow; [3]): 0
Plant response rating, Nutsedge, Yellow (nutsedge, yellow; [4]): 0
Plant response rating, Nutsedge, Yellow (nutsedge, yellow; [5]): 0
Plant response rating, Nutsedge, Yellow (nutsedge, yellow; [6]): 0
